Each structure is given as a SMILES string.

One assay has as its system hypoxia-inducible endogenous VEGF expression in HeLa cells. Nature of the assay: Hypoxia-inducible endogenous VEGF expression, VEGF ELISA of conditioned media (dose-response EC50). The settings on record: HeLa cells under hypoxic conditions. Type of assay: cell-based. As to the method: The ability of the compounds of the invention to modulate hypoxia-inducible endogenous VEGF expression may be analyzed as follows. VEGF protein levels may be monitored by an ELISA assay (R&D Systems). Briefly, HeLa cells may be cultured for 24-48 hours under hypoxic conditions (1% O2, 5% CO2, balanced with nitrogen) in the presence or absence of a compound of the invention. The conditioned media may then be assayed by ELISA, and the concentration of VEGF calculated from the standard ELISA curve of each assay.
A dose-response analysis may be performed using the ELISA assay and conditions described above. The conditions for the dose-response ELISA are analogous to those described above. A series of, e.g., seven different concentrations may be analyzed. […] Dose-response curves may be plotted using percentage inhibition versus concentration of the compound, and EC50 and CC50 values may be generated for each compound with the maximal inhibition set as 100% and the minimal inhibition as 0%.
As for `CCOC(=O)N1CCc2c([nH]c3ccc(Br)cc23)C1c1ccc([N+](=O)O)cc1` (centres unmarked) [Compound 59], the concentration giving a half-maximal response (EC50) was 8 to 40 nM.

The same assay, now with this note: Homo sapiens, HeLa cells under hypoxic conditions.
With `CCOC(=O)N1CCc2c([nH]c3ccc(Br)cc23)C1c1ccc(C)cc1` (centres unmarked) [#8], the EC50 is less than 8 nM.

`CCOC(=O)N1CCc2c([nH]c3ccc(Cl)cc23)C1c1ccc([N+](=O)[O-])cc1` (centres unmarked) [#74] returned an EC50 of 8 to 40 nM.

`COc1ccc(OC(=O)N2CCc3c([nH]c4ccc(Br)cc34)[C@@H]2c2ccc(Cl)cc2)cc1` [#332]: the EC50 is more than 1000 nM.

`COc1ccc(C2c3[nH]c4ccc(Cl)cc4c3CCN2c2cnccn2)cc1` (centres unmarked) [Compound 1]: the EC50 lay in the range of 8 to 40 nM.

On to `CCOC(=O)N1CCc2c([nH]c3ccc(Cl)cc23)C1c1ccc(OC)cc1` (centres unmarked) [Compound 2], for which the EC50 was less than 8 nM.

`CCOC(=O)N1CCc2c([nH]c3ccc(Br)cc23)C1c1ccc(Br)cc1` (centres unmarked) [Compound 3] yielded an EC50 of less than 8 nM.

The molecule `CCOC(=O)N1CCc2c([nH]c3ccc(Br)cc23)C1c1ccc(Cl)cc1` (centres unmarked) [Compound 4] returned an EC50 of less than 8 nM.

As to `CCOC(=O)N1CCc2c([nH]c3ccc(Cl)cc23)C1c1cccc(F)c1F` (centres unmarked) [Compound 5], the EC50 is less than 8 nM.

As for `O=C(OCCCl)N1CCc2c([nH]c3ccc(Cl)cc23)C1c1cccc(F)c1F` (centres unmarked) [Compound 6], the EC50 was less than 8 nM.

On to `CCOC(=O)N1CCc2c([nH]c3ccc(Cl)cc23)C1c1ccc(Cl)cc1` (centres unmarked) [Compound 11], for which the EC50 was less than 8 nM.

With `N#Cc1ccc(C2c3[nH]c4ccc(Cl)cc4c3CCN2C(=O)OCCCl)cc1` (centres unmarked) [Compound 12], the EC50 is less than 8 nM.

Molecule `CCCOC(=O)N1CCc2c([nH]c3ccc(Cl)cc23)C1c1ccc(C(C)C)cc1` (centres unmarked) [Compound 13] gave an EC50 of less than 8 nM.

`CCOC(=O)N1CCc2c([nH]c3ccc(Cl)cc23)C1c1ccc(C(C)C)cc1` (centres unmarked) [Compound 14] gave an EC50 of less than 8 nM.

Take `O=C(OCCCl)N1CCc2c([nH]c3ccc(Cl)cc23)C1c1cccc(C(F)(F)F)c1` (centres unmarked) [Compound 15]: the EC50 is less than 8 nM.

Molecule `CCOC(=O)N1CCc2c([nH]c3ccc(Br)cc23)C1c1cccc(Cl)c1` (centres unmarked) [Compound 16] showed an EC50 of less than 8 nM.

In the case of `COc1ccc(C2c3[nH]c4ccc(Cl)cc4c3CCN2C(=O)Oc2ccc(C)cc2)cc1` (centres unmarked) [Compound 17], the concentration for a half-maximal effect (EC50) was less than 8 nM.

Molecule `CC(C)c1ccc(C2c3[nH]c4ccc(Cl)cc4c3CCN2C(=O)OCCCl)cc1` (centres unmarked) [Compound 18] registered an EC50 of less than 8 nM.

Take `CCCOC(=O)N1CCc2c([nH]c3ccc(Cl)cc23)C1c1ccc(C(F)(F)F)cc1` (centres unmarked) [Compound 19]: the EC50 was less than 8 nM.

Take `CCOC(=O)N1CCc2c([nH]c3ccc(Cl)cc23)C1c1cccc(Cl)c1` (centres unmarked) [Compound 20]: the concentration for a half-maximal effect (EC50) is less than 8 nM.

Consider `CCOC(=O)N1CCc2c([nH]c3ccc(Cl)cc23)C1c1ccc(F)cc1F` (centres unmarked) [Compound 21], for which the EC50 was less than 8 nM.

Consider `O=C(OCCCl)N1CCc2c([nH]c3ccc(Cl)cc23)C1c1cc(F)ccc1F` (centres unmarked) [Compound 22], for which the EC50 was less than 8 nM.

`CCOC(=O)N1CCc2c([nH]c3ccc(Cl)cc23)C1c1ccc(F)cc1` (centres unmarked) [Compound 23] gave an EC50 of less than 8 nM.

For `CC(C)OC(=O)N1CCc2c([nH]c3ccc(Cl)cc23)C1c1ccc(C(C)C)cc1` (centres unmarked) [Compound 24], the 50% effective concentration (EC50) was less than 8 nM.

For the molecule `CC(C)OC(=O)N1CCc2c([nH]c3ccc(Cl)cc23)C1c1ccc(C(F)(F)F)cc1` (centres unmarked) [Compound 26], the half-maximal effective concentration (EC50) was less than 8 nM.

The molecule `CCOC(=O)N1CCc2c([nH]c3ccc(Br)cc23)C1c1ccccc1` (centres unmarked) [Compound 27] showed an EC50 of less than 8 nM.

The molecule `CCCOC(=O)N1CCc2c([nH]c3ccc(Cl)cc23)C1c1ccc(OC)cc1` (centres unmarked) [Compound 28] registered an EC50 of less than 8 nM.

In the case of `CCOC(=O)N1CCc2c([nH]c3ccc(Br)cc23)C1c1cccc(F)c1F` (centres unmarked) [Compound 29], the EC50 is less than 8 nM.

Regarding `COc1ccc(C2c3[nH]c4ccc(Cl)cc4c3CCN2C(=O)OCC(C)C)cc1` (centres unmarked) [Compound 30], the concentration for a half-maximal effect (EC50) was less than 8 nM.

Regarding `CCOC(=O)N1CCc2c([nH]c3ccc(Cl)cc23)C1c1ccc(C(F)(F)F)cc1` (centres unmarked) [Compound 31], the 50% effective concentration (EC50) is less than 8 nM.

`CCOC(=O)N1CCc2c([nH]c3ccc(Br)cc23)C1c1cccc(C(F)(F)F)c1` (centres unmarked) [Compound 32] gave an EC50 of less than 8 nM.

The molecule `O=C(OCCCl)N1CCc2c([nH]c3ccc(Cl)cc23)C1c1ccc(C(F)(F)F)cc1` (centres unmarked) [Compound 33] showed an EC50 of less than 8 nM.

As to `COC(=O)N1CCc2c([nH]c3ccc(Cl)cc23)C1c1ccc(C(C)C)cc1` (centres unmarked) [Compound 34], the concentration for a half-maximal effect (EC50) was less than 8 nM.

Turning to `O=C(OCCCl)N1CCc2c([nH]c3ccc(Cl)cc23)C1c1ccc(F)c(F)c1` (centres unmarked) [Compound 35], the EC50 was less than 8 nM.

`Cc1ccc(C2c3[nH]c4ccc(Cl)cc4c3CCN2C(=O)OC(C)C)cc1` (centres unmarked) [Compound 36] displayed a concentration for a half-maximal effect (EC50) of less than 8 nM.

Molecule `CCOC(=O)N1CCc2c([nH]c3ccc(Cl)cc23)C1c1cccc(C(F)(F)F)c1` (centres unmarked) [Compound 37] registered an EC50 of less than 8 nM.

`CCOC(=O)N1CCc2c([nH]c3ccc(Cl)cc23)C1c1ccccc1` (centres unmarked) [Compound 38] yielded a concentration giving a half-maximal response (EC50) of less than 8 nM.

Molecule `CCOC(=O)N1CCc2c([nH]c3ccc(Cl)cc23)C1c1ccc(F)c(F)c1` (centres unmarked) [Compound 39] showed a concentration giving a half-maximal response (EC50) of less than 8 nM.

`CC(C)OC(=O)N1CCc2c([nH]c3ccc(Cl)cc23)C1c1ccc(Cl)cc1` (centres unmarked) [Compound 40]: the EC50 was less than 8 nM.

`CCCOC(=O)N1CCc2c([nH]c3ccc(Cl)cc23)C1c1ccc(Br)cc1` (centres unmarked) [Compound 41] gave an EC50 of less than 8 nM.

`CCCOC(=O)N1CCc2c([nH]c3ccc(Cl)cc23)C1c1ccc(C)cc1` (centres unmarked) [Compound 42]: the concentration giving a half-maximal response (EC50) was less than 8 nM.

`COC(=O)N1CCc2c([nH]c3ccc(Cl)cc23)C1c1ccc(OC)cc1` (centres unmarked) [Compound 43] came in with a 50% effective concentration (EC50) of less than 8 nM.

As to `CCOC(=O)N1CCc2c([nH]c3ccc(Br)cc23)C1c1cccc(Br)c1` (centres unmarked) [Compound 44], the EC50 is less than 8 nM.

In turn, `CC(C)OC(=O)N1CCc2c([nH]c3ccc(Cl)cc23)C1c1ccc(C#N)cc1` (centres unmarked) [Compound 45] had an EC50 of less than 8 nM.

`COC(=O)N1CCc2c([nH]c3ccc(Cl)cc23)C1c1ccc(Br)cc1` (centres unmarked) [Compound 46]: the concentration for a half-maximal effect (EC50) fell in the range of 8 to 40 nM.

`CC(C)OC(=O)N1CCc2c([nH]c3ccc(Cl)cc23)C1c1ccc(Br)cc1` (centres unmarked) [Compound 47] displayed an EC50 of 8 to 40 nM.

Consider `Cc1ccc(C2c3[nH]c4ccc(Cl)cc4c3CCN2C(=O)OCCCl)cc1` (centres unmarked) [Compound 48], for which the EC50 was 8 to 40 nM.

`CCCOC(=O)N1CCc2c([nH]c3ccc(Cl)cc23)C1c1ccc(Cl)cc1` (centres unmarked) [Compound 49] yielded a half-maximal effective concentration (EC50) of 8 to 40 nM.

In turn, `CC(=O)N1CCc2c([nH]c3ccc(Br)cc23)C1c1ccc(Cl)cc1` (centres unmarked) [Compound 50] displayed a concentration for a half-maximal effect (EC50) of 8 to 40 nM.

`CCOC(=O)N1CCc2c([nH]c3ccc(Cl)cc23)C1c1cccc(F)c1` (centres unmarked) [Compound 51] had a concentration giving a half-maximal response (EC50) of 8 to 40 nM.

In turn, `COC(=O)N1CCc2c([nH]c3ccc(Cl)cc23)C1c1ccc(C)cc1` (centres unmarked) [Compound 52] had an EC50 of 8 to 40 nM.

In turn, `COC(=O)N1CCc2c([nH]c3ccc(Cl)cc23)C1c1cccc(F)c1F` (centres unmarked) [Compound 53] returned a concentration giving a half-maximal response (EC50) of 8 to 40 nM.

Consider `CCOC(=O)N1CCc2c([nH]c3ccc(Cl)cc23)C1c1ccc(Br)cc1` (centres unmarked) [Compound 54], for which the half-maximal effective concentration (EC50) lay in the range of 8 to 40 nM.

As to `O=C(OCCCl)N1CCc2c([nH]c3ccc(Cl)cc23)C1c1ccc(Cl)cc1` (centres unmarked) [Compound 55], the EC50 was in the range of 8 to 40 nM.

As for `CC(C)OC(=O)N1CCc2c([nH]c3ccc(Cl)cc23)C1c1ccc([N+](=O)[O-])cc1` (centres unmarked) [Compound 56], the EC50 fell in the range of 8 to 40 nM.

Turning to `COc1ccc(C2c3[nH]c4ccc(Cl)cc4c3CCN2C(=O)OC(C)C)cc1` (centres unmarked) [Compound 57], the EC50 is 8 to 40 nM.

The molecule `O=C(OCCCl)N1CCc2c([nH]c3ccc(Cl)cc23)C1c1ccc(Br)cc1` (centres unmarked) [Compound 58] had an EC50 of 8 to 40 nM.

As for `COc1ccc(C2c3[nH]c4ccc(Cl)cc4c3CCN2C(=O)Oc2ccccc2)cc1` (centres unmarked) [Compound 60], the EC50 was in the range of 8 to 40 nM.

For the molecule `COc1ccc(C2c3[nH]c4ccc(Cl)cc4c3CCN2C(=O)OCCCl)cc1` (centres unmarked) [Compound 61], the concentration giving a half-maximal response (EC50) lay within 8 to 40 nM.

`COC(=O)N1CCc2c([nH]c3ccc(Cl)cc23)C1c1ccc(C(F)(F)F)cc1` (centres unmarked) [Compound 62] came in with an EC50 of 8 to 40 nM.

Take `CCOC(=O)N1CCc2c([nH]c3ccc(Br)cc23)C1c1cc(F)cc(F)c1` (centres unmarked) [Compound 64]: the EC50 lay in the range of 8 to 40 nM.

For `COC(=O)N1CCc2c([nH]c3ccc(Br)cc23)C1c1ccccc1` (centres unmarked) [Compound 65], the concentration giving a half-maximal response (EC50) was in the range of 8 to 40 nM.

Molecule `CCCOC(=O)N1CCc2c([nH]c3ccc(Cl)cc23)C1c1ccc([N+](=O)[O-])cc1` (centres unmarked) [Compound 66] yielded a concentration for a half-maximal effect (EC50) of 8 to 40 nM.

`CC(C)COC(=O)N1CCc2c([nH]c3ccc(Br)cc23)C1c1ccccc1` (centres unmarked) [Compound 67] yielded an EC50 of 8 to 40 nM.

The molecule `COC(=O)N1CCc2c([nH]c3ccc(Cl)cc23)C1c1ccc(F)cc1` (centres unmarked) [Compound 68] returned a half-maximal effective concentration (EC50) of 8 to 40 nM.

`CCCOC(=O)N1CCc2c([nH]c3ccc(Cl)cc23)C1c1cccc(Br)c1` (centres unmarked) [Compound 69] gave an EC50 of 8 to 40 nM.

The same assay, now with this note: Homo sapiens, HeLa cells, hypoxic conditions (1% O2, 5% CO2).
For `O=C(Oc1ccc(F)cc1)N1CCc2c([nH]c3ccc(Cl)cc23)C1c1ccc(OCCNc2nccs2)cc1` (centres unmarked) [#837], the EC50 is less than 8 nM.

Molecule `Cc1cnc(NCCOc2ccc(C3c4[nH]c5ccc(Cl)cc5c4CCN3C(=O)Oc3ccc(F)cc3)cc2)s1` (centres unmarked) [#838] displayed a concentration giving a half-maximal response (EC50) of less than 8 nM.

Regarding `O=C(Oc1ccc(Cl)cc1)N1CCc2c([nH]c3ccc(Cl)cc23)C1c1ccc(OCCNc2nccs2)cc1` (centres unmarked) [#841], the EC50 is less than 8 nM.

Turning to `Cc1cnc(NCCOc2ccc(C3c4[nH]c5ccc(Cl)cc5c4CCN3C(=O)Oc3ccc(Cl)cc3)cc2)s1` (centres unmarked) [#842], the EC50 was less than 8 nM.

`O=C(Oc1ccc(Cl)cc1)N1CCc2c([nH]c3ccc(Cl)cc23)C1c1ccc(OCCNc2cccnc2)cc1` (centres unmarked) [#843] gave an EC50 of less than 8 nM.

For the origin of these results see patent US8076352B2, “Administration of carboline derivatives useful in the treatment of cancer and other diseases” (PTC Therapeutics, Inc., priority 2004, dated 2011).
